Source: ChEMBL document CHEMBL1201862, “PubChem BioAssay data set” (2004)
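Following 48 hours of exposure in 96-well plates, responses at five concentrations were used to interpolate endpoints linearly. At the GI50, growth is halved.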 Calls of active or inactive are those of the source. Cut-off read from the data, not from the text of the source: active = GI50 up to about 1.1 µM and inactive = higher.

Legend:
Test in all cases: NCI anticancer screen, dose series, 48 h
[1] = test system: OVCAR-4
[2] = test system: TK-10
[3] = test system: OVCAR-8
[4] = test system: SR
[5] = test system: NCI-H226
[6] = test system: NCI-H460
[7] = test system: DMS-114
[8] = test system: SW-620
[9] = test system: KM12
[10] = test system: SF-268
[11] = test system: M19-MEL
[12] = test system: SF-295
[13] = test system: SK-MEL-2
[14] = test system: HCC 2998
[15] = test system: UACC-257
[16] = test system: A549
[17] = test system: SNB-78
[18] = test system: SK-OV-3
[19] = test system: XF498
[20] = test system: HT-29
[21] = test system: ACHN
[22] = test system: CCRF-CEM
[23] = test system: UO-31
[24] = test system: RXF 631
[25] = test system: Malme-3M
[26] = test system: U-251
[27] = test system: NCI-H23
[28] = test system: HL-60
[29] = test system: SF-539
[30] = test system: SN12C
[31] = test system: UACC-62
[32] = test system: COLO 205
[33] = test system: LOX IMVI
[34] = test system: DLD-1
[35] = test system: LXFL 529
[36] = test system: MOLT-4
[37] = test system: DMS-273
[38] = test system: CAKI-1
[39] = test system: KM-20L2
[40] = test system: OVCAR-5
[41] = test system: SNB-19
[42] = test system: OVCAR-3
[43] = test system: NCI-H522
[44] = test system: HCT-15
[45] = test system: 786-0
[46] = test system: M14
[47] = test system: IGROV-1
[48] = test system: K562
[49] = test system: SK-MEL-28
[50] = test system: RXF 393
[51] = test system: EKVX
[52] = test system: HCT-116
[53] = test system: HOP-62
[54] = test system: RPMI-8226
[55] = test system: SK-MEL-5
[56] = test system: HOP-18
[57] = test system: HOP-92
[58] = test system: A498
[59] = test system: SNB-75

## Cc1nc(-n2nc(-c3ccccc3)cc2-c2ccccc2)sc1C(=O)/C=C/c1ccc(Cl)c(Cl)c1
[1]
  GI50: 21.1 µM (inactive)
[2]
  GI50: 43.2 µM (inactive)
[3]
  GI50: 14.1 µM (inactive)
[4]
  GI50: 17.2 µM (inactive)
[5]
  GI50: 15.3 µM (inactive)
[6]
  GI50: > 100 µM (inactive)
[7]
  GI50: 33.3 µM (inactive)
[8]
  GI50: 21.5 µM (inactive)
[9]
  GI50: 8.67 µM (inactive)
[10]
  GI50: 33.1 µM (inactive)
[11]
  GI50: 51.6 µM (inactive)
[12]
  GI50: 16.7 µM (inactive)
[13]
  GI50: 41.7 µM (inactive)
[14]
  GI50: 24.7 µM (inactive)
[15]
  GI50: 25.8 µM (inactive)
[16]
  GI50: 25.6 µM (inactive)
[17]
  GI50: 15.6 µM (inactive)
[18]
  GI50: > 100 µM (inactive)
[19]
  GI50: 17.1 µM (inactive)
[20]
  GI50: > 10 µM (inactive)
[21]
  GI50: 23.7 µM (inactive)
[22]
  GI50: 16.9 µM (inactive)
[23]
  GI50: 10.6 µM (inactive)
[24]
  GI50: 8.26 µM (inactive)
[25]
  GI50: 32.4 µM (inactive)
[26]
  GI50: 11.6 µM (inactive)
[27]
  GI50: 49.2 µM (inactive)
[28]
  GI50: 14 µM (inactive)
[29]
  GI50: 18.3 µM (inactive)
[30]
  GI50: 15.7 µM (inactive)
[31]
  GI50: 4.89 µM (inactive)
[32]
  GI50: 28.7 µM (inactive)
[33]
  GI50: 13.1 µM (inactive)
[34]
  GI50: 13.4 µM (inactive)
[35]
  GI50: 15.3 µM (inactive)
[36]
  GI50: 11.8 µM (inactive)
[37]
  GI50: 32.2 µM (inactive)
[38]
  GI50: 24.8 µM (inactive)
[39]
  GI50: 12.2 µM (inactive)
[40]
  GI50: 18.8 µM (inactive)
[41]
  GI50: 16.3 µM (inactive)
[42]
  GI50: 15.9 µM (inactive)
[43]
  GI50: 10 µM (inactive)
[44]
  GI50: 15.9 µM
[45]
  GI50: 15.7 µM (inactive)
[46]
  GI50: 17.6 µM (inactive)
[47]
  GI50: 12.1 µM (inactive)
[48]
  GI50: 15.8 µM (inactive)
[49]
  GI50: 31.3 µM (inactive)
[50]
  GI50: 28.1 µM (inactive)
[51]
  GI50: 27 µM (inactive)
[52]
  GI50: 26.7 µM (inactive)
[53]
  GI50: 21.9 µM (inactive)

## COc1ccc(C2=C(Cl)c3cc(OC)c(OC)cc3C2)cc1OC
[1]
  GI50: > 100 µM (inactive)
[54]
  GI50: > 100 µM (inactive)
[55]
  GI50: > 100 µM (inactive)
[3]
  GI50: > 100 µM (inactive)
[56]
  GI50: > 100 µM (inactive)
[4]
  GI50: > 100 µM (inactive)
[57]
  GI50: > 100 µM (inactive)
[5]
  GI50: > 100 µM (inactive)
[7]
  GI50: > 100 µM (inactive)
[8]
  GI50: > 100 µM (inactive)
[10]
  GI50: > 100 µM (inactive)
[11]
  GI50: > 100 µM (inactive)
[12]
  GI50: > 100 µM (inactive)
[14]
  GI50: > 100 µM (inactive)
[15]
  GI50: > 100 µM (inactive)
[58]
  GI50: 34.9 µM (inactive)
[16]
  GI50: > 100 µM (inactive)
[17]
  GI50: > 100 µM (inactive)
[18]
  GI50: > 100 µM (inactive)
[19]
  GI50: > 100 µM (inactive)
[20]
  GI50: > 100 µM (inactive)
[21]
  GI50: > 100 µM (inactive)
[22]
  GI50: > 100 µM (inactive)
[23]
  GI50: > 100 µM (inactive)
[25]
  GI50: > 100 µM (inactive)
[26]
  GI50: > 100 µM (inactive)
[27]
  GI50: > 100 µM (inactive)
[28]
  GI50: > 100 µM (inactive)
[29]
  GI50: > 100 µM (inactive)
[30]
  GI50: > 100 µM (inactive)
[31]
  GI50: > 100 µM (inactive)
[32]
  GI50: > 100 µM (inactive)
[34]
  GI50: > 100 µM (inactive)
[35]
  GI50: > 100 µM (inactive)
[36]
  GI50: > 100 µM (inactive)
[37]
  GI50: > 100 µM (inactive)
[39]
  GI50: > 100 µM (inactive)
[41]
  GI50: > 100 µM (inactive)
[43]
  GI50: > 100 µM (inactive)
[44]
  GI50: > 100 µM
[45]
  GI50: > 100 µM (inactive)
[59]
  GI50: > 100 µM (inactive)
[46]
  GI50: > 100 µM (inactive)
[47]
  GI50: > 100 µM (inactive)
[48]
  GI50: > 100 µM (inactive)
[49]
  GI50: > 100 µM (inactive)
[50]
  GI50: 24.4 µM (inactive)
[51]
  GI50: > 100 µM (inactive)
[52]
  GI50: > 100 µM (inactive)
[53]
  GI50: > 100 µM (inactive)
